Experimental data reported in patent US20130197077A1, “Bicyclic Furanones with Low Toxicity for Microbial Control” (priority 2012, published 2013).

Experiments:
E. coli RP437 = tested on: E. coli RP437
Description: FIG. 10 is a graph comparing the cytotoxicity of the exemplary bicyclic brominated furanones according to the present invention verses an exemplary conventional brominated furanone relative to E. Coli RP437;

3T3 mouse fibroblasts = assay: Cytotoxicity to mammalian cells, survival (%) by OD450; type: cell-based; details: 100 μM; 0 h, 24 h and 48 h recovery after removal of drugs
Procedure: (§1) In this test, the mammalian cells used were 3T3 mouse fibroblasts and SK-N-SH human neuroblastomas, and 0 h, 24 h, and 48 h, refer to recovery time of cells after removal of drugs. At the beginning of the experiment, the survival of the cells is assumed to be 100 percent. The survival percentage is calculated using the following formula: […]
(§2) The sample OD was obtained from the wells containing cells and drugs, and the control OD was obtained from wells containing cells+1% DMSO.

[1] = tested on: SK-N-SH human neuroblastoma; assay: as above; type: cell-based; details: 100 μM; 0 h, 24 h and 48 h recovery after removal of drugs
Procedure: as §1, §2

SMILES: CC1=C(Br)/C(=C/Br)OC1=O [BF8]
- toxicity to the growth of E. coli RP437 (E. coli RP437): more toxic
- cytotoxicity to 3T3 mouse fibroblasts (3T3 mouse fibroblasts): cytotoxic
- cytotoxicity to SK-N-SH human neuroblastomas [1]: cytotoxic
